PMC5734728, “The JAK2/STAT3 inhibitor pacritinib effectively inhibits patient-derived GBM brain tumor initiating cells in vitro and when used in combination with temozolomide increases survival in an orthotopic xenograft model” (PLoS ONE, 2017)
Like-named read-outs stand apart in the source and are kept apart here.

What was measured:
[1] = in vitro; type: in vitro ADME, mouse; conditions: male, CD-1, mouse
Procedure: (§1) Working stocks were initially diluted to a concentration of 40 μM in 0.1 M potassium phosphate buffer before addition to the reaction vials. Pooled mouse (CD-1, male) or human (50 donors) liver microsomes were utilized at a final concentration of 0.5 mg/mL. Duplicate wells were used for each time point (0 and 30 minutes). Reactions were carried out at 37°C in a shaker, and the final concentration of DMSO was kept constant at 0.01%. The final volume for each reaction was 100 μL, which included the addition of an NADPH-Regeneration solution (NRS) mix. The NRS mix was comprised of glucose 6-phosphate dehydrogenase (0.4 U/mL), NADP+ (1.3 mM), MgCl2 (3.3 mM), and glucose 6-phosphate (3.3 mM) in assay mixtures. Upon completion of the 30-minute time point, reactions were terminated by the addition of 1.5-volumes (150 μL) of ice-cold acetonitrile with 0.5% formic acid and internal standard. Samples were then centrifuged at 4,000 rpm for 10 minutes to remove debris and precipitated protein. Approximately 150 μL of supernatant was subsequently transferred to a new 96-well microplate for LC-MS analysis. Narrow-window mass extraction LC-MS analysis was performed for all samples using a Waters Xevo quadrupole time-of-flight (QToF) mass spectrometer and an ACQUITY UPLC system, to determine relative peak areas of parent compound.

[2] = mouse liver microsomes; usual value of control compound; cited from earlier work
[3] = human liver microsomal stability assay; type: in vitro ADME; conditions: human liver microsomes, 30-minute incubation, 1 μM
Procedure: as §1

[4] = human liver microsomes; usual value of control compound; cited from earlier work
[5] = test system: p-STAT3 Y705; assay: western blotting of activated STAT3 in BTICs; type: cell-based, human; conditions: BT53, 48 hours; 1 μM pacritinib, 10 μg/mL TMZ or both
Procedure: BTIC spheres were enzymatically dissociated as described above and plated at 10^6 cells/2 mL of media. Cells were treated with vehicle (DMSO), pacritinib, TMZ, or a combination of pacritinib and TMZ and pelleted at select time points (3, 24, and 48 hours). For protein extraction, BTICs were lysed in modified radio-immunoprecipitation assay buffer supplemented with Complete Mini protease (Roche) and Halt phosphatase (Thermo Scientific) inhibitor cocktails. Protein concentrations were quantified using the BioRad protein assay; 20 μg of protein were loaded on 6% or 10% sodium dodecyl sulfate polyacrylamide gel electrophoresis (SDS PAGE) gels and transblotted to nitrocellulose membranes. Blots were stained with primary antibodies followed by horseradish peroxidase-conjugated secondary antibodies. Primary antibodies included p-STAT3 Y705 (1:1000; Cell Signaling Technology), STAT3 (1:1000; Cell Signaling Technology), p-Akt S473 (1:1000; Cell Signaling Technology), Akt (1:1000; Cell Signaling Technology), p-p44/42 MAPK (T202/Y204) (1:1000; Cell Signaling Technology), p44/42 MAPK (1:4000; Cell Signaling Technology), poly (ADP-ribose) polymerase (1:1000; Cell Signaling Technology), β-tubulin (1:1000; Cell Signaling Technology), and Actin (1:1000; Santa Cruz Biotechnology). Secondary antibodies included donkey anti-mouse (1:5000; Cell Signaling Technology), donkey anti-goat (1:5000; Millipore), and goat anti-rabbit (1:5000; Cell Signaling Technology). The blots were washed with tris-buffered saline and tween 20 (T-TBS) (50mM Tris, 150mM NaCl, 0.05% Tween 20, pH 7.6) and blocked with tris-buffered saline (TBS) before imaging. Bands were visualized with the SuperSignal West Pico chemiluminescent solution (Thermo Scientific) and an Amersham™ Imager 600 (General Electric).

[6] = test system: BT53 orthotopic xenograft; assay: Kaplan-Meier survival, orthotopic BT53 xenograft; type: in vivo, mice; conditions: BT53; combination p < 0.0023, TMZ alone p < 0.0229, log-rank
Procedure: For Kaplan-Meier survival studies, BTIC spheres from BT53 or BT147 were dissociated to a single-cell suspension. Mice were anaesthetized using 10 mg/kg ketamine/xylazine. Buprenorphine (0.05 mg/kg) was administered once pre-operatively and once post-operatively to minimize animal suffering. 5 x 10^4 cells were stereotactically implanted into the right striata of 8- to 10-week-old female severe combined immunodeficient (SCID) mice, as previously described and approved by the University of Calgary Health Sciences Animal Care Committee, accredited by CCAC. Mice were randomized to vehicle or treatment cohorts, with a minimum of 8 mice per group, one week after cell implantation. For BT147, vehicle (Ora-Plus; Galenova), pacritinib (100 mg/kg), TMZ (30 mg/kg), or a combination of pacritinib (100 mg/kg) and TMZ (30 mg/kg), were administered via oral gavage. Animals completed a five-week regimen of three weekly treatments for a total of 15 treatments. For BT53, 100 mg/kg of pacritinib was administered twice per day alone or in combination with 50 mg/kg TMZ once per day, for one week via oral gavage. Following this, mice received 100 mg/kg pacritinib twice per day in combination with 10 mg/kg TMZ once per day for two weeks. […] The body weights were closely monitored throughout the course of the experiment. […]

[7] = test system: BT147 orthotopic xenograft; assay: Kaplan-Meier survival, orthotopic BT147 xenograft; type: in vivo; conditions: BT147 xenografted mice; pacritinib 100 mg/kg, TMZ 30 mg/kg, oral, thrice weekly for five weeks; control 52 days
Procedure: For Kaplan-Meier survival studies, BTIC spheres from BT53 or BT147 were dissociated to a single-cell suspension. Mice were anaesthetized using 10 mg/kg ketamine/xylazine. Buprenorphine (0.05 mg/kg) was administered once pre-operatively and once post-operatively to minimize animal suffering. 5 x 10^4 cells were stereotactically implanted into the right striata of 8- to 10-week-old female severe combined immunodeficient (SCID) mice, as previously described and approved by the University of Calgary Health Sciences Animal Care Committee, accredited by CCAC. Mice were randomized to vehicle or treatment cohorts, with a minimum of 8 mice per group, one week after cell implantation. For BT147, vehicle (Ora-Plus; Galenova), pacritinib (100 mg/kg), TMZ (30 mg/kg), or a combination of pacritinib (100 mg/kg) and TMZ (30 mg/kg), were administered via oral gavage. Animals completed a five-week regimen of three weekly treatments for a total of 15 treatments. For BT53, 100 mg/kg of pacritinib was administered twice per day alone or in combination with 50 mg/kg TMZ once per day, for one week via oral gavage. Following this, mice received 100 mg/kg pacritinib twice per day in combination with 10 mg/kg TMZ once per day for two weeks. Mice were euthanized with a lethal dose of sodium pentobarbital at a pre-defined humane endpoint. Specific criteria for the endpoint included: 20% weight loss, lack of grooming, inactivity, hind limb paralysis, and/or inability to eat or drink. The body weights were closely monitored throughout the course of the experiment. […] The presence of tumor was confirmed in the mice via necropsy and cranial dissection.

[8] = test system: patient-derived GBM BTIC cultures; assay: alamarBlue viability assay, panel of BTIC cultures; conditions: 10 μg/mL TMZ
Procedure: Accumax (eBioscience) was used to enzymatically dissociate BTIC spheres to single cells. Cells were seeded at 1000 cells per well in 96-well plates and treated with vehicle (DMSO) or drug, 24 hours after plating. BTIC viability was assessed after 7–14 days, once spheres were formed in control wells, by performing the alamarBlue™ (Invitrogen) assay per the manufacturer’s instructions. In brief, the alamar dye was added to each well and plates were read 6 hours later. Fluorescence intensity (excitation 540 nm; emission 590 nm) was measured on a SpectraMax M Series Multi-Mode Microplate reader. […] All experiments were performed in triplicate with a minimum of 3 wells per condition.
BTICs were treated with suboptimal doses of 1 μM pacritinib (CTI Biopharma), 10 μg/mL TMZ (Sigma), or a combination of pacritinib and TMZ. […] Percent inhibition was determined by normalizing each well to the control well (0.1% DMSO).

## Cc1cc(=O)n(-c2ccccc2)n1C [Antipyrine]
[1]; microsomes, % Remaining
  remaining at 0.5 h, 1 μM: 96.5%
[2]
  Usual value (% remaining): Usual value: >90%

## COc1ccc2c(c1)[C@]13CCCC[C@@H]1[C@H](C2)N(C)CC3 [DXM]
[3]
  % Remaining: 75.0%
[4]
  Usual value (% remaining): Usual value: 72 ± 10%

## CC(C)NCC(O)COc1cccc2ccccc12 (centres unmarked) [Propranolol]
[1]; liver microsomes, mouse liver microsomes, 30-minute incubation, 1 μM, read-out: % Remaining
  remaining at 0.5 h, 1 μM: 9.6%
[2]
  Usual value (% remaining): Usual value: <20%

## Cn1nnc2c(C(N)=O)ncn2c1=O [TMZ, temozolomide]
[5]
  p-STAT3 Y705: dramatic increase in p-STAT3 Y705
[6]
  survival advantage over the control, combination study: significant survival advantage over the control arm
[7]
  median survival: 58 days
[8]; representative BT12
  sensitivity of MGMT unmethylated BTIC cultures: largely resistant to TMZ
[8]; representative BT67 and BT69
  sensitivity of MGMT methylated BTIC cultures: highly sensitive to TMZ
